Results reported in publication PMC8548588, “Cesium tolerance is enhanced by a chemical which binds to BETA-GLUCOSIDASE 23 in Arabidopsis thaliana” (Scientific Reports, 2021).

Biological target: T1, AtβGLU23 (BETA-GLUCOSIDASE 23, PYK10) (Arabidopsis thaliana, UniProt Q9SR37)
T1 construct: gene BGLU23; native protein from total protein extract of 11-day-old seedlings
T1 sequence (Q9SR37 25-524): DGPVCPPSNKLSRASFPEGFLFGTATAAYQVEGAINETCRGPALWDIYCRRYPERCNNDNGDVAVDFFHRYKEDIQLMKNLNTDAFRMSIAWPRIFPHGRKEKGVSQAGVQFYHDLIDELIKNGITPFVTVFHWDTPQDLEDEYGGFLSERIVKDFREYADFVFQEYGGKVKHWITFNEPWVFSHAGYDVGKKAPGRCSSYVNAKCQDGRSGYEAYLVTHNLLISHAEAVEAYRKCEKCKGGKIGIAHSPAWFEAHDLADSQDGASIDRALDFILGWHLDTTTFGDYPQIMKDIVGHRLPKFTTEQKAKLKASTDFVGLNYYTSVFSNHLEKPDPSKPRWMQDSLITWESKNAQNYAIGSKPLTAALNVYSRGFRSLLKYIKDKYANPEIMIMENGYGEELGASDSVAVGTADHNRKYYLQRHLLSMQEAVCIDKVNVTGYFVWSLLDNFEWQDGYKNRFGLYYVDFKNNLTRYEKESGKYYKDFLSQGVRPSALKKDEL
Test: pull-down from plant extract with photo-cross-linked compound beads, SDS-PAGE, LC-MS/MS
Assay type: binding
Details: compound immobilised on photoaffinity-linker-coated agarose beads; 10 mM CsCl, pH 7.6, 4 °C, 18-24 h; control beads without compound

pull-down from plant extract with photo-cross-linked compound beads, SDS-PAGE, L: CsToAcE1, binds to AtβGLU23
Structure (SMILES): Cc1cc(C(=O)Cn2cc(C(F)(F)F)ccc2=O)c(C)n1C(C)C [CsToAcE1, 1-[2-[2,5-Dimethyl-1-(propan-2-yl)-1H-pyrrol-3-yl]-2-oxoethyl]-5-(trifluoromethyl)-1,2-dihydropyridin-2-one]
